Results reported in PubChem BioAssay AID743022 (Sanford-Burnham Center for Chemical Genomics, 2013).
Where “and” joins values, the source holds several entries; their conditions need not be identical. Identical values can stand only once. Calls of active or inactive are those of the source.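 Rule for the calls: active = compounds whose mean IC50 for blocking the worm GFP/RFP stress reporter is 5 µM or lower; inactive = the rest.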

System: C. elegans VP596 gst-4::GFP/RFP ratio, acrylamide-induced, 24 h
Test: analog inhibition of acrylamide-induced gst-4::GFP reporter, SAR follow-up, SKN-1 inhibitor project, whole organism, GFP/RFP fluorescence ratio, round 3 (AID 743022)

Structure (SMILES) | IC50
FC(F)(F)c1ccc(-c2csc(-c3ccncc3)n2)cc1 | 3.9 µM
Clc1cccc(-c2csc(-c3ccncc3)n2)c1 | 1.49 µM
CCCc1cc(-c2nc(-c3ccc(C)cc3)cs2)ccn1 | 34.1 µM (inactive)
Fc1ccc(-c2csc(-c3cccnc3)n2)cc1 | 6.94 µM (inactive)
Cc1ccc(-c2csc(-c3ccncc3)n2)cc1 | 18.2 µM (inactive)
Clc1ccc(-c2csc(-c3ccncc3)n2)c(Cl)c1 | 1.1 µM
CCCc1cc(-c2nc(-c3ccc(NS(C)(=O)=O)cc3)cs2)ccn1 | > 64 µM (inactive)
COC(=O)c1ccc(-c2csc(-c3ccncc3)n2)cc1 | > 64 µM (inactive)
Clc1ccc(-c2csc(-c3ccccn3)n2)cc1 | 1.59 µM and 0.869 µM
Clc1ccc(-c2csc(-c3ccncc3)n2)cc1Cl | 0.276 µM and 0.884 µM
Cc1cccc(-c2csc(-c3ccncc3)n2)c1 | 30.1 µM (inactive)
COc1ccccc1-c1csc(-c2ccncc2)n1 | > 64 µM (inactive)
Cc1csc(-c2ccncc2)n1 | > 64 µM (inactive)
Fc1ccc(-c2csc(-c3ccncc3)n2)cc1 | 2.53 µM
Clc1ccccc1-c1csc(-c2ccncc2)n1 | 3.63 µM
c1cc(-c2nc(-c3nccs3)cs2)ccn1 | 21.5 µM (inactive)
Clc1ccc(-c2csc(-c3ccncc3)n2)cc1 | 1.34 µM and 1.92 µM
Cc1ccccc1-c1csc(-c2ccncc2)n1 | 14.6 µM (inactive)
N#Cc1ccc(-c2csc(-c3ccncc3)n2)cc1 | 13.5 µM (inactive)
COc1cccc(-c2csc(-c3ccncc3)n2)c1 | 26.2 µM (inactive)
Cc1ccc(-c2csc(-c3ccccn3)n2)cc1 | 27.4 µM (inactive)
COc1ccc(-c2csc(-c3ccccn3)n2)cc1 | 17.9 µM (inactive)
Clc1ccc(-c2csc(-c3cccnc3)n2)cc1 | 1.67 µM and 0.379 µM
COc1ccc(-c2csc(-c3ccncc3)n2)cc1 | 16.6 µM (inactive)
Cc1ccc(-c2csc(-c3cccnc3)n2)cc1 | > 64 µM (inactive)
Fc1ccc(-c2csc(-c3ccccn3)n2)cc1 | 3.18 µM
COc1ccc(-c2csc(-c3cccnc3)n2)cc1 | 13.4 µM (inactive)
CC(C)(C)c1csc(-c2ccncc2)n1 | > 64 µM (inactive)

Second part, the compound after the results:

IC50 | Structure (SMILES)
17.7 µM (inactive) | c1ccc(-c2csc(-c3cccnc3)n2)cc1
28.8 µM (inactive) | COc1ccc(-c2csc(-c3ccccc3)n2)cc1
> 64 µM (inactive) | c1cc(-c2nc(C3CC3)cs2)ccn1
> 64 µM (inactive) | COc1ccc(-c2csc(C3CCNCC3)n2)cc1
3.24 µM | Cc1sc(-c2ccncc2)nc1-c1ccc(Cl)cc1
> 64 µM (inactive) | Fc1ccc(-c2csc(C3CCNCC3)n2)cc1
> 64 µM (inactive) | Cc1sc(C2CCNCC2)nc1-c1ccccc1
2.1 µM | Clc1ccc(-c2csc(-c3ccccc3)n2)cc1
2.5 µM | c1ccc(-c2csc(-c3ccncc3)n2)cc1
> 64 µM (inactive) | Clc1ccc(-c2csc(C3CCNCC3)n2)cc1
23.3 µM (inactive) | Fc1ccc(-c2csc(-c3ccccc3)n2)cc1
4.77 µM | Cc1sc(-c2ccncc2)nc1-c1ccc(F)cc1
> 64 µM (inactive) | Cc1ccc(-c2nc(-c3ccncc3)sc2C)cc1
> 64 µM (inactive) | Cc1ccc(-c2csc(C3CCNCC3)n2)cc1
51.2 µM (inactive) | COc1ccc(-c2nc(-c3ccncc3)sc2C)cc1
11.3 µM (inactive) | Cc1sc(-c2ccncc2)nc1-c1ccccc1
> 64 µM (inactive) | c1ccc(-c2nc(-c3cccnc3)cs2)cc1
29 µM (inactive) | c1ccc(-c2csc(-c3ccccn3)n2)cc1
> 64 µM (inactive) | c1ccc(-c2csc(C3CCNCC3)n2)cc1
> 64 µM (inactive) | Cc1ccc(-c2csc(-c3ccccc3)n2)cc1
